We go through 13 compounds from ChEMBL document CHEMBL1909046, “DrugMatrix in vitro pharmacology data”.

Molecules are shown by their SMILES.

Assay [1] is described as follows: DRUGMATRIX: Potassium Channel [KATP] radioligand binding (ligand: [3H] Glyburide). The class given is cell membranes, Membrane. Conditions: hit-t15; Not Active = under 50% inhibition at 10 µM.
Assay [2] can be described thus: DRUGMATRIX: GABAA, Flunitrazepam, Central radioligand binding (ligand: [3H] Flunitrazepam). The class given is cell membranes, Rattus norvegicus, Wistar, Brain, Membrane. To be noted: Not Active = under 50% inhibition at 10 µM.
Assay [3] concerns the target Protein kinase C alpha type (Homo sapiens, UniProt P17252). The class given is cell-based. To be noted: sf9.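 Further: inhibition of PKCalpha kinase activity measured in an enzyme assay with histone as the phosphorylation substrate; in other assays of this panel Not Active means under 50% inhibition at 10 µM.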
Assay [4] is described as follows: DRUGMATRIX: Glutamate, Kainate radioligand binding (ligand: [3H] Kainic acid). The class given is cell membranes, Rattus norvegicus, Wistar, Brain, Membrane. Conditions: Not Active = under 50% inhibition at 10 µM.
The target in assay [5] is 5-hydroxytryptamine receptor 6 (Homo sapiens, UniProt P50406). The class given is cell membranes, HeLa, Membrane. Further: in other assays of this panel Not Active means under 50% inhibition at 10 µM.
Assay [6] can be described thus: DRUGMATRIX: Nicotinic Acetylcholine radioligand binding (ligand: [125I] Epibatidine). The class given is cell membranes, Membrane. Conditions: imr-32; Not Active = under 50% inhibition at 10 µM.
In assay [7] the target is T1, Interstitial collagenase (Homo sapiens, UniProt P03956).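 Further: MMP-1 enzyme inhibition assay using a peptide substrate; in other assays of this panel Not Active means under 50% inhibition at 10 µM.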
T1 sequence (P03956 whole entry): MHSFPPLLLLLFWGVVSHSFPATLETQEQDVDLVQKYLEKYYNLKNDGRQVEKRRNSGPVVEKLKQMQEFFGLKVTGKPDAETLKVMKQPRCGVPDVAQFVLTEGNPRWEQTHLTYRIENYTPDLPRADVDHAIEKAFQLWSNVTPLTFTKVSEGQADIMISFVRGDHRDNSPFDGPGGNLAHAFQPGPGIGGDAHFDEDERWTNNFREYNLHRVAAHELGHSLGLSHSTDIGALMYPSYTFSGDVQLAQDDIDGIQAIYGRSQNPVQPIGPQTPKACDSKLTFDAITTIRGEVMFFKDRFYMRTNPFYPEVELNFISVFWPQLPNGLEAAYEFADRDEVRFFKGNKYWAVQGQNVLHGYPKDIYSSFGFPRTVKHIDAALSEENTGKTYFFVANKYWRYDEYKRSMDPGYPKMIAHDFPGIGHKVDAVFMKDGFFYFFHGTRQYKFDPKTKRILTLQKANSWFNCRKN
Put plainly: biochemical. The class given is tissue-based, Rheumatoid synovial fibroblasts.

5-hydroxytryptamine receptor 6, sequence (P50406 whole entry): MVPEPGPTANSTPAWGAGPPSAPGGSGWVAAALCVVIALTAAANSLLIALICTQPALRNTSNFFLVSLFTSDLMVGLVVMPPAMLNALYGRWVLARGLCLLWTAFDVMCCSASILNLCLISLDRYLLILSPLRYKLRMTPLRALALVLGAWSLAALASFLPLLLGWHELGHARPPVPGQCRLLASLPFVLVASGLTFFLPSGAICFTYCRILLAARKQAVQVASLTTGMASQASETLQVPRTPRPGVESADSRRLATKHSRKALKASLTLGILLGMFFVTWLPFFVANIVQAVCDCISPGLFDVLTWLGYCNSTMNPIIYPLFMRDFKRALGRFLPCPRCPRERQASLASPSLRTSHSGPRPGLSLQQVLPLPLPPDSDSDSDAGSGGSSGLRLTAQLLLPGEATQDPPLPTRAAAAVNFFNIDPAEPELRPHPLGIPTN

By IC50 is commonly meant the concentration at which inhibition is half-maximal. The Ki is the equilibrium dissociation constant of an inhibitor or competing ligand from its target. Take `O=C(O)c1cc(/N=N/c2ccc(S(=O)(=O)Nc3ccccn3)cc2)ccc1O` [SULFASALAZINE]: the half-inhibitory concentration (IC50) result in assay [1], in assay [2], in assay [3], in assay [4], in assay [5] (hela) and in assay [6] was “Not Active” each time. Moreover, the IC50 in assay [7] (read-out: IC50) is 23500 nM. In addition, the inhibitory constant (Ki) result in assay [1], in assay [2], in assay [4] and in assay [6] was “Not Active” in each case.
For the compound `Cc1cccc(C)c1NC(=O)C(C)N` (centres undefined) [TOCAINIDE], the 50% inhibitory concentration (IC50) result in assay [1], in assay [2], in assay [3], in assay [4], in assay [5] (hela) and in assay [6] was “Not Active” in each case. In addition, the IC50 entry in assay [7] is “Not Active”. Moreover, the Ki result in assay [1], in assay [2], in assay [4] and in assay [6] was “Not Active” each time.
Consider `CO[C@@]12[C@H](COC(N)=O)C3=C(C(=O)C(C)=C(N)C3=O)N1C[C@@H]1N[C@@H]12` [MITOMYCIN], for which the IC50 result in assay [1], in assay [2], in assay [3], in assay [4], in assay [5] (hela) and in assay [6] was “Not Active” throughout. In assay [7], the IC50 result is reported as “Not Active”. The inhibitory constant (Ki) entry in assay [1], in assay [2], in assay [4] and in assay [6] was “Not Active” in each case.
As to `Nc1nc(N)c2nc(-c3ccccc3)c(N)nc2n1`, the 50% inhibitory concentration (IC50) result in assay [1], in assay [2], in assay [3], in assay [4], in assay [5] (hela) and in assay [6] was “Not Active” throughout. Besides, the IC50 result in assay [7] is listed as “Not Active”. The Ki entry in assay [1], in assay [2], in assay [4] and in assay [6] was “Not Active” throughout.
Take `CC1=C(/C=C/C(C)=C/C=C/C(C)=C/C(=O)O)C(C)(C)CCC1` [TRETINOIN]: the half-maximal inhibitory concentration (IC50) entry in assay [1], in assay [2], in assay [3], in assay [4], in assay [5] (hela) and in assay [6] was “Not Active” each time. For the same compound, the IC50 result in assay [7] is “Not Active”. For the same compound, the Ki entry in assay [1], in assay [2], in assay [4] and in assay [6] was “Not Active” each time.
On to `CC[C@@]1(O)C(=O)OCc2c1cc1n(c2=O)Cc2cc3c(CN(C)C)c(O)ccc3nc2-1` [TOPOTECAN], for which the 50% inhibitory concentration (IC50) entry in assay [1], in assay [2], in assay [3], in assay [4], in assay [5] (hela) and in assay [6] was “Not Active” in each case. Besides, in assay [7], the IC50 result is “Not Active”. The inhibition constant Ki result in assay [1], in assay [2], in assay [4] and in assay [6] was “Not Active” each time.
With `Cc1ccc(Cl)c(Nc2ccccc2C(=O)O)c1Cl` [MECLOFENAMIC ACID], the IC50 entry in assay [1], in assay [2], in assay [3], in assay [4], in assay [5] (hela) and in assay [6] was “Not Active” in each case. Also, the concentration for half-maximal inhibition (IC50) result in assay [7] is “Not Active”. Moreover, the Ki result in assay [1], in assay [2], in assay [4] and in assay [6] was “Not Active” in each case.
Turning to `CCOc1cc(N)c(Cl)cc1C(=O)NCC1CN(Cc2ccc(F)cc2)CCO1` (centres undefined) [MOSAPRIDE], the concentration for half-maximal inhibition (IC50) entry in assay [1], in assay [2], in assay [3], in assay [4], in assay [5] (hela) and in assay [6] was “Not Active” each time. Further, the IC50 result in assay [7] is “Not Active”. Also, the Ki result in assay [1], in assay [2], in assay [4] and in assay [6] was “Not Active” throughout.
As for `CN1C[C@H](CNC(=O)OCc2ccccc2)C[C@@H]2c3cccc4c3c(cn4C)C[C@H]21` [METERGOLINE], the IC50 entry was “Not Active” in assay [1]; “Not Active” in assay [2]; “Not Active” in assay [3]; “Not Active” in assay [4]; 28 nM in assay [5] (read-out: IC50); “Not Active” in assay [6]. The half-maximal inhibitory concentration (IC50) entry in assay [7] is given as “Not Active”. Besides, the Ki entry was “Not Active” in assay [1]; “Not Active” in assay [2]; “Not Active” in assay [4]; 13 nM in assay [5] (read-out: Ki); “Not Active” in assay [6].
`C1CCN2C[C@@H]3C[C@@H](CN4CCCC[C@@H]34)[C@H]2C1` [SPARTEINE]: the IC50 result in assay [1], in assay [2], in assay [3], in assay [4], in assay [5] (hela) and in assay [6] was “Not Active” throughout. Besides, the half-inhibitory concentration (IC50) result in assay [7] was “Not Active”. Also, the inhibitory constant (Ki) result in assay [1], in assay [2], in assay [4] and in assay [6] was “Not Active” in each case.
Turning to `CO[C@@H]1[C@@H](OC)[C@H](C)[C@@](O)(CC(=O)O)O[C@H]1[C@H](C)[C@H]1O[C@@]2(CC[C@@](C)([C@H]3CC[C@@](C)([C@@H]4O[C@@H]([C@H]5O[C@](C)(O)[C@H](C)C[C@@H]5C)C[C@@H]4O[C@@H]4C[C@H](OC)[C@@H](OC)[C@H](C)O4)O3)O2)C[C@H](O)[C@H]1C.N` [MADURAMICIN], the IC50 result in assay [1], in assay [2], in assay [3], in assay [4], in assay [5] (hela) and in assay [6] was “Not Active” each time. For the same compound, the IC50 entry in assay [7] is on record as “Not Active”. Besides, the Ki result in assay [1], in assay [2], in assay [4] and in assay [6] was “Not Active” throughout.
`CN1C(=O)OC(C)(C)C1=O` [TRIMETHADIONE]: the IC50 entry in assay [1], in assay [2], in assay [3], in assay [4], in assay [5] (hela) and in assay [6] was “Not Active” in each case. In addition, the IC50 result in assay [7] is on record as “Not Active”. Further, the Ki result in assay [1], in assay [2], in assay [4] and in assay [6] was “Not Active” throughout.
Take `CC1(C)[C@H](C(=O)O)N2C(=O)C[C@H]2S1(=O)=O` [SULBACTAM]: the half-maximal inhibitory concentration (IC50) entry in assay [1], in assay [2], in assay [3], in assay [4], in assay [5] (hela) and in assay [6] was “Not Active” throughout. Also, the IC50 entry in assay [7] is “Not Active”. Moreover, the Ki entry in assay [1], in assay [2], in assay [4] and in assay [6] was “Not Active” each time.
